For 27 compounds, IC50 results are on record in patent US7135467B2, “HIV integrase inhibitors” (priority 2003, dated 2006).

This test concerns the target T1, HIV-integrase (recombinant integrase) (Human immunodeficiency virus type 1 group M subtype B, UniProt P12497).
T1 construct: Recombinant integrase (0.26 ng) was incubated with the beads
Description: HIV-Integrase Inhibition Activity (SPA bead strand-transfer assay). The conditions noted are these: recombinant integrase on biotin labeled substrate DNA/SPA beads, P33 labeled target DNA; read-out: Activity (IC50 against HIV-integrase). In kind it is biochemical. The protocol:
To evaluate in-vitro activity against HIV-integrase, 5 pmole of biotin labeled substrate DNA was bound to 100 μg of Streptavidin coated PVT SPA beads (Amersham Pharmacia Biotech). Recombinant integrase (0.26 ng) was incubated with the beads for 90 min at 37° C. Unbound enzyme was removed by washing the complex followed by addition of inhibitors and 0.1 fmol of P33 labeled target DNA. The reaction was stopped by adding EDTA to a final concentration of 10 mM. Samples were counted in TopCountNXT (Packard) and the CPM was used as a measure of integration. The reaction condition was as described in A. Engelman and R. Craigie, J. Virol. 69, 5908–5911 (1995). The sequences of substrate and target DNA were described in Nucleic Acid Research 22, 1121–1122 (1994). Activity equal to A refers to a compound having IC50=0.003 to 0.10 μM while B and C denote compounds the following IC50=0.1 to 1.0 μM and IC50≧1.0 μM respectively.
For the compound `Cn1c(N2CCCCS2(=O)=O)nc(C(=O)NCc2ccc(F)cc2)c(O)c1=O` [Compound 1, N-[(4-fluorophenyl)methyl]-1,6-dihydro-5-hydroxy-1-methyl-6-oxo-2-(tetrahydro-1,1-dioxido-2H-1,2-thiazin-2-yl)-4-pyrimidinecarboxamide], the IC50 (as a rule, the concentration needed to halve the response being measured) was 3 to 100 nM.

As for `Cn1c(N2CCCCS2(=O)=O)nc(C(=O)NCc2ccc(Cl)c(Cl)c2)c(O)c1=O` [Compound 2, N-[(3,4-dichlorophenyl)methyl]-1,6-dihydro-5-hydroxy-1-methyl-6-oxo-2-(tetrahydro-1,1-dioxido-2H-1,2-thiazin-2-yl)-4-pyrimidinecarboxamide], the IC50 was in the range of 3 to 100 nM.

`Cn1c(N2CCCCS2(=O)=O)nc(C(=O)NCc2cccc(F)c2)c(O)c1=O` [Compound 3, N-[(3-fluorophenyl)methyl]-1,6-dihydro-5-hydroxy-1-methyl-6-oxo-2-(tetrahydro-1,1-dioxido-2H-1,2-thiazin-2-yl)-4-pyrimidinecarboxamide]: the IC50 was 100 to 1000 nM.

Turning to `Cn1c(N2CCCCS2(=O)=O)nc(C(=O)NCc2ccc(Cl)cc2)c(O)c1=O` [Compound 4, N-[(4-chlorophenyl)methyl]-1,6-dihydro-5-hydroxy-1-methyl-6-oxo-2-(tetrahydro-1,1-dioxido-2H-1,2-thiazin-2-yl)-4-pyrimidinecarboxamide], the IC50 was in the range of 3 to 100 nM.

Regarding `Cn1c(N2CCCCS2(=O)=O)nc(C(=O)NCc2cccc(Cl)c2)c(O)c1=O` [Compound 5, N-[(3-chlorophenyl)methyl]-1,6-dihydro-5-hydroxy-1-methyl-6-oxo-2-(tetrahydro-1,1-dioxido-2H-1,2-thiazin-2-yl)-4-pyrimidinecarboxamide], the IC50 is 3 to 100 nM.

For the compound `Cn1c(N2CCCCS2(=O)=O)nc(C(=O)NCCCc2ccc(F)cc2)c(O)c1=O` [Compound 6, N-[3-(4-fluorophenyl)propyl]-1,6-dihydro-5-hydroxy-1-methyl-6-oxo-2-(tetrahydro-1,1-dioxido-2H-1,2-thiazin-2-yl)-4-pyrimidinecarboxamide], the IC50 lay in the range of 3 to 100 nM.

On to `Cn1c(N2CCCCS2(=O)=O)nc(C(=O)NCCCc2ccc(Cl)c(Cl)c2)c(O)c1=O` [Compound 7, N-[3-(3,4-dichlorophenyl)propyl]-1,6-dihydro-5-hydroxy-1-methyl-6-oxo-2-(tetrahydro-1,1-dioxido-2H-1,2-thiazin-2-yl)-4-pyrimidinecarboxamide], for which the IC50 is at least 1000 nM.

As for `Cc1ccc(CNC(=O)c2nc(N3CCCCS3(=O)=O)n(C)c(=O)c2O)cc1` [Compound 8, 1,6-dihydro-5-hydroxy-1-methyl-N-[(4-methylphenyl)methyl]-6-oxo-2-(tetrahydro-1,1-dioxido-2H-1,2-thiazin-2-yl)-4-pyrimidinecarboxamide], the IC50 lay within 3 to 100 nM.

Regarding `Cc1cccc(CNC(=O)c2nc(N3CCCCS3(=O)=O)n(C)c(=O)c2O)c1` [Compound 9, 1,6-dihydro-5-hydroxy-1-methyl-N-[(3-methylphenyl)methyl]-6-oxo-2-(tetrahydro-1,1-dioxido-2H-1,2-thiazin-2-yl)-4-pyrimidinecarboxamide], the IC50 was in the range of 3 to 100 nM.

For `COc1ccc(CNC(=O)c2nc(N3CCCCS3(=O)=O)n(C)c(=O)c2O)cc1` [Compound 10, 1,6-dihydro-5-hydroxy-N-[(4-methoxyphenyl)methyl]-1-methyl-6-oxo-2-(tetrahydro-1,1-dioxido-2H-1,2-thiazin-2-yl)-4-pyrimidinecarboxamide], the IC50 fell in the range of 3 to 100 nM.

Regarding `COc1cccc(CNC(=O)c2nc(N3CCCCS3(=O)=O)n(C)c(=O)c2O)c1` [Compound 11, 1,6-dihydro-5-hydroxy-N-[(3-methoxyphenyl)methyl]-1-methyl-6-oxo-2-(tetrahydro-1,1-dioxido-2H-1,2-thiazin-2-yl)-4-pyrimidinecarboxamide], the IC50 is 100 to 1000 nM.

Regarding `Cn1c(N2CCCCS2(=O)=O)nc(C(=O)NCc2cc(Cl)cc(Cl)c2)c(O)c1=O` [Compound 12, N-[(3,5-dichlorophenyl)methyl]-1,6-dihydro-5-hydroxy-1-methyl-6-oxo-2-(tetrahydro-1,1-dioxido-2H-1,2-thiazin-2-yl)-4-pyrimidinecarboxamide], the IC50 lay within 3 to 100 nM.

As to `Cc1cc(CNC(=O)c2nc(N3CCCCS3(=O)=O)n(C)c(=O)c2O)ccc1F` [Compound 13, N-[(4-fluoro-3-methylphenyl)methyl]-1,6-dihydro-5-hydroxy-1-methyl-6-oxo-2-(tetrahydro-1,1-dioxido-2H-1,2-thiazin-2-yl)-4-pyrimidinecarboxamide], the IC50 lay in the range of 3 to 100 nM.

Regarding `Cc1ccc(CNC(=O)c2nc(N3CCCCS3(=O)=O)n(C)c(=O)c2O)cc1F` [Compound 14, N-[(3-fluoro-4-methylphenyl)methyl]-1,6-dihydro-5-hydroxy-1-methyl-6-oxo-2-(tetrahydro-1,1-dioxido-2H-1,2-thiazin-2-yl)-4-pyrimidinecarboxamide], the half-inhibitory concentration (IC50) is 3 to 100 nM.

For `Cn1c(N2CCCCS2(=O)=O)nc(C(=O)NCc2ccc(F)c(F)c2)c(O)c1=O` [Compound 15, N-[(3,4-difluorophenyl)methyl]-1,6-dihydro-5-hydroxy-1-methyl-6-oxo-2-(tetrahydro-1,1-dioxido-2H-1,2-thiazin-2-yl)-4-pyrimidinecarboxamide], the IC50 was in the range of 3 to 100 nM.

As for `Cn1c(N2CCCCS2(=O)=O)nc(C(=O)NCCc2ccc(F)cc2)c(O)c1=O` [Compound 16, N-[2-(4-fluorophenyl)ethyl]-1,6-dihydro-5-hydroxy-1-methyl-6-oxo-2-(tetrahydro-1,1-dioxido-2H-1,2-thiazin-2-yl)-4-pyrimidinecarboxamide], the IC50 is at least 1000 nM.

On to `Cn1c(N2CCCCS2(=O)=O)nc(C(=O)NCc2ccc(F)cc2F)c(O)c1=O` [Compound 17, N-[(2,4-difluorophenyl)methyl]-1,6-dihydro-5-hydroxy-1-methyl-6-oxo-2-(tetrahydro-1,1-dioxido-2H-1,2-thiazin-2-yl)-4-pyrimidinecarboxamide], for which the IC50 was 3 to 100 nM.

With `Cn1c(N2CCCCS2(=O)=O)nc(C(=O)NCc2ccc(F)c(Cl)c2)c(O)c1=O` [Compound 18, N-[(3-chloro-4-fluorophenyl)methyl]-1,6-dihydro-5-hydroxy-1-methyl-6-oxo-2-(tetrahydro-1,1-dioxido-2H-1,2-thiazin-2-yl)-4-pyrimidinecarboxamide], the IC50 is 3 to 100 nM.

In the case of `Cc1ccc(CNC(=O)c2nc(N3CCCCS3(=O)=O)n(C)c(=O)c2O)cc1C` [Compound 19, N-[(3,4-dimethylphenyl)methyl]-1,6-dihydro-5-hydroxy-1-methyl-6-oxo-2-(tetrahydro-1,1-dioxido-2H-1,2-thiazin-2-yl)-4-pyrimidinecarboxamide], the IC50 was 3 to 100 nM.

For `Cn1c(N2CCCCS2(=O)=O)nc(C(=O)NCc2ccc(F)c(C(F)(F)F)c2)c(O)c1=O` [Compound 20, N-[[4-fluoro-3-(trifluoromethyl)phenyl]methyl]-1,6-dihydro-5-hydroxy-1-methyl-6-oxo-2-(tetrahydro-1,1-dioxido-2H-1,2-thiazin-2-yl)-4-pyrimidinecarboxamide], the IC50 fell in the range of 3 to 100 nM.

`Cn1c(N2CCCCS2(=O)=O)nc(C(=O)NCCc2cccc(F)c2)c(O)c1=O` [Compound 21, N-[2-(3-fluorophenyl)ethyl]-1,6-dihydro-5-hydroxy-1-methyl-6-oxo-2-(tetrahydro-1,1-dioxido-2H-1,2-thiazin-2-yl)-4-pyrimidinecarboxamide]: the IC50 is at least 1000 nM.

For the compound `COc1ccc(CNC(=O)c2nc(N3CCCCS3(=O)=O)n(C)c(=O)c2O)c(OC)c1` [Compound 22, N-[(2,4-dimethoxyphenyl)methyl]-1,6-dihydro-5-hydroxy-1-methyl-6-oxo-2-(tetrahydro-1,1-dioxido-2H-1,2-thiazin-2-yl)-4-pyrimidinecarboxamide], the IC50 fell in the range of 3 to 100 nM.

With `Cc1ccc(CNC(=O)c2nc(N3CCCCS3(=O)=O)n(C)c(=O)c2O)o1` [Compound 23, 1,6-dihydro-5-hydroxy-1-methyl-N-[(5-methyl-2-furanyl)methyl]-6-oxo-2-(tetrahydro-1,1-dioxido-2H-1,2-thiazin-2-yl)-4-pyrimidinecarboxamide], the IC50 lay within 3 to 100 nM.

Consider `COc1ccccc1CNC(=O)c1nc(N2CCCCS2(=O)=O)n(C)c(=O)c1O` [Compound 24, 1,6-dihydro-5-hydroxy-N-[(2-methoxyphenyl)methyl]-1-methyl-6-oxo-2-(tetrahydro-1,1-dioxido-2H-1,2-thiazin-2-yl)-4-pyrimidinecarboxamide], for which the 50% inhibitory concentration (IC50) lay in the range of 3 to 100 nM.

With `Cn1c(N2CCCCS2(=O)=O)nc(C(=O)NCC(c2ccccc2)c2ccccc2)c(O)c1=O` [Compound 25, N-(2,2-diphenylethyl)-1,6-dihydro-5-hydroxy-1-methyl-6-oxo-2-(tetrahydro-1,1-dioxido-2H-1,2-thiazin-2-yl)-4-pyrimidinecarboxamide], the IC50 is at least 1000 nM.

Take `Cn1c(N2CCCCS2(=O)=O)nc(C(=O)NCCc2ccc(Cl)cc2)c(O)c1=O` [Compound 26, N-[2-(4-chlorophenyl)ethyl]-1,6-dihydro-5-hydroxy-1-methyl-6-oxo-2-(tetrahydro-1,1-dioxido-2H-1,2-thiazin-2-yl)-4-pyrimidinecarboxamide]: the IC50 was at least 1000 nM.

Consider `COc1ccc(CCNC(=O)c2nc(N3CCCCS3(=O)=O)n(C)c(=O)c2O)cc1` [Compound 27, 1,6-dihydro-5-hydroxy-N-[2-(4-methoxyphenyl)ethyl]-1-methyl-6-oxo-2-(tetrahydro-1,1-dioxido-2H-1,2-thiazin-2-yl)-4-pyrimidinecarboxamide], for which the IC50 is at least 1000 nM.
